Data on three compounds can be found in patent US20200009248A1, “TARGETING TGR5 TO TREAT DISEASE” (Mayo Foundation for Medical Education and Research, priority 2014, published 2020).

The test system of data set [1] is control and cystic cholangiocytes. Description: cAMP production (Bridge-It cAMP assay) in cholangiocytes treated with TGR5 agonists. The format is cell-based, rat, human. To be noted: 25 μM, 30 minutes; for cAMP production: ciliated cystic cholangiocytes (PCK rat, human ADPKD). (cAMP levels reflect the balance of adenylyl cyclase and phosphodiesterase activity.)
Protocol: Production of cAMP was detected using a Bridge-It cAMP designer cAMP assay (Mediomics, St. Lou is, MO) according to manufacturer's protocol. […] Forskolin (10^−6M for 15 min) served as a control.
Data set [2] deals with ADPKD cholangiocytes. Description: Three-dimensional culture of cystic cholangiocytes, cyst growth. The format is cell-based, human. To be noted: ADPKD cholangiocytes with TGR5 depleted by shRNA. The text has this: Control and cystic rat cholangiocytes (derived from wild type and PCK rats, respectively), and control and cystic human cholangiocytes (derived from healthy humans and ADPKD patients, respectively) were used. Cells were isolated and maintained as described elsewhere (Masyuk et al., Hepatol 2013, 58:409-421). […] C1 and C2 were synthesized in the Sanford-Burnham Medical Research Institute at >95% purity by HPLC following a procedure outlined elsewhere (Piotrowski et al., ACS Med Chem Lett 2013, 4:63-68; and Evans et al., J Med Chem 2009, 52:7962-7965). PCK and ADPKD cholangiocytes were stably transfected with TGR5 shRNAs or control shRNAs (Santa Cruz Biotechnology, Santa Cruz, Calif.). Rodents were maintained on a standard diet and water ad lib. […]
Cultured cholangiocytes and cystic bile ducts freshly isolated by microdissection from PCK rats were grown in three-dimensional matrices as described elsewhere (Masyuk et al., Am J Pathol 2014, 184:110-121; and Masyuk et al., Am J Pathol 2004, 165:1719-1730) and treated with TLCA and OA (both, […]) daily. […] The circumferential area of each cyst was measured using ImageJ software (National Institutes of Health, Bethesda, Md.) as described elsewhere (Masyuk et al., Am J Pathol 2014, 184:110-121). Data were expressed as percent change at day 3 compared to day 1.

Data set [3] deals with PCK rats. The data set is described as follows: Hepato-renal cystogenesis in PCK rats treated with OA for 6 weeks. The format is in vivo. To be noted: 25 mg/kg bw intraperitoneally daily; for hepato-renal cystogenesis: 25 mg/kg. The source says: (§1) Control PCK rats (n=8) received equal doses of DMSO. Drug concentrations were adjusted to the animal weight weekly. After 6 weeks of treatment, rats were sacrificed and body and organ weights assessed. […] Hepatic and renal cystic and fibrotic areas were expressed as a percentage of total hepatic or renal parenchyma, respectively.

Data set [4] concerns cystic bile ducts from PCK rats. Description: Three-dimensional culture of cystic bile ducts, cyst growth. The format is cell-based, rat. To be noted: 25 μm daily, day 3 vs day 1, compared to untreated. How it is done: Cultured cholangiocytes and cystic bile ducts freshly isolated by microdissection from PCK rats were grown in three-dimensional matrices as described elsewhere (Masyuk et al., Am J Pathol 2014, 184:110-121; and Masyuk et al., Am J Pathol 2004, 165:1719-1730) and treated with TLCA and OA (both, […]) daily. Images were taken at days 1 (i.e., 24 hours after seeding) and 3. The circumferential area of each cyst was measured using ImageJ software (National Institutes of Health, Bethesda, Md.) as described elsewhere (Masyuk et al., Am J Pathol 2014, 184:110-121). Data were expressed as percent change at day 3 compared to day 1.

The test system of data set [5] is Gαi and Gαs proteins, TGR5. Particulars: PCK rats in vivo, immunofluorescence.
Source text: as §1

Data set [6] relates to Gαi and Gαs proteins. The data set is described as follows: Western blot of Gαi and Gαs proteins in control and cystic cholangiocytes with or without OA. The format is cell-based. How it is done:
Western blotting. Briefly, proteins were separated by 4-15% SDSPAGE, transferred to nitrocellulose membranes (Bio-Rad, Hercules, Calif.), and incubated overnight at 4° C. with antibodies against TGR5 (Santa Cruz Biotechnology), Gas (Abcam, Cambridge, Mass.), and Gαi (Cell Signaling Technology, Danvers, Mass.). Actin antibody was used to assure equal protein loading. Membranes were washed and incubated for 1 hour at room temperature with the corresponding horseradish peroxidase-conjugated (Invitrogen) or IRDYE® 680 or 800 (Odyssey) secondary antibodies. Bands were visualized with the ECL Plus Western Blotting Detection kit (BD Biosciences, San Jose, Calif.) or Odyssey Li-Cor Scanner (Li-Cor, Lincoln, Nebr.).
(A western blot detects proteins with antibodies after separation by electrophoresis.)

Setting [7] is: ciliated control cholangiocytes (rat, human).
Setting [8] is: non-ciliated control and cystic cholangiocytes (rat, human).

The structures appear in SMILES notation. “Also recorded” adds a separate entry of the source.

For the compound `CCNc1nc2c(c(C(N)=O)n1)CN(C(=O)CCc1ccc(OC(F)(F)F)cc1)CC2` [C1, 2-(ethylamino)-6-(3-(4-(trifluoromethoxy)phenyl)propanoyl)-5,6,7,8-tetrahydropyrido[4,3-d]pyrimidine-4-carbox-amide], the values for the cAMP levels entry in data set [1] (setting [7]) and in data set [1] (setting [8]) were “decreased cAMP levels” and “elevated cAMP”, respectively. Further, in data set [1], the cAMP production entry is given as “increasing cAMP production”.

For `Cc1onc(-c2ccccc2Cl)c1C(=O)N(C)c1ccc(Cl)cc1` [C2, 3-(2-chlorophenyl)-N-(4-chlorophenyl)-N,5-dimethylisoxazole-4-carboxamide], the results for the cAMP levels entry in data set [1] (setting [7]) and in data set [1] (setting [8]) were “decreased cAMP levels” and “elevated cAMP”, respectively. Moreover, the cAMP production result in data set [1] is “increasing cAMP production”.

Turning to `CC1(C)CC[C@]2(C(=O)O)CC[C@]3(C)C(=CC[C@@H]4[C@@]5(C)CC[C@H](O)C(C)(C)[C@@H]5CC[C@]43C)[C@@H]2C1` [OA, oleanolic acid], the “growth of cystic structures in 3-D culture after TGR5 depletion” value in data set [2] is “abolished the effects”. Also, in data set [3], the “mortality or toxicity (e.g., hair or weight loss)” value is listed as “no mortality or toxicity” and the tolerability result is listed as “well tolerated”. Further, in data set [3] (compared to control PCK rats), the “increase of hepatic cystic areas” value came out at 31%, the “increase of hepatic fibrotic areas” value was found to be 20%, the “increase of kidney weights” value is on record as 11% and the “increase of liver weights” value was determined as 12%. Also, in data set [3] (compared to control PCK rats), the “increase of renal cystic areas” value was found to be 19% and the “increase of renal fibrotic areas” value is listed as 30%. In addition, in data set [3] (listed as Oleanolic Acid), the hepato-renal cystogenesis entry was “Increases”. Also, the hepato-renal cystogenesis result in data set [3] (listed as oleanolic acid) was “increases”. For the same compound, the “growth of cystic structures (cyst expansion) in 3-D culture” value in data set [4] is listed as “accelerated cyst expansion”. Moreover, the cAMP levels entry in data set [1] (setting [7]) is “decreased cAMP levels”. In addition, in data set [1], the cAMP production entry is “increasing cAMP production”. Also, the cAMP levels entry in data set [1] (setting [8]) was “elevated cAMP”. Besides, the “expression of Gα proteins” value in data set [5] is reported as “does not affect”. Further, the “expression of Gαi and Gαs proteins” value in data set [6] is recorded as “no effects; also recorded: did not affect”.
